Common to all, as to experiment: MIC in vitro
Assay [1] has as its system Salmonella typhimurius AMES 98. The format is cell-based, Salmonella typhimurium. The settings on record: AMES98, Dextrose agar, 37° C., 20 hours. The protocol: (G. L. Daquet and Y. A. Chabbect, Techniques en bacteriologie (Bacteriological techniques), vol. 3, Flammarion Medecine Sciences, Paris, 1972 and W. B. Hugo and A. D. Rusell, Pharmaceutical Microbiology, Blackwell Scientific Publications, London, (1977)).
Antibiotic medium no. 1 (seed agar) (Oxoid CM 327)
Tryptone-soya broth (Oxoid CM 129)
Ringer's physiological solution 1/4 (oxoid BR 52) Dextrose agar (BBL-11165) 0.1 N NaOH
"Salmonella typhimurium" AMES 98
Each of the microorganisms is seeded by streaking in tubes of Antibiotic medium No. 1 (seed agar), which are then incubated at 37° C. for 20 hours. Using a culture loop, the cultures are then seeded in tryptone-soyabroth and incubated at 37° C. for 20 hours. The culture obtained is diluted to 1/4 with Ringer's physiological solution, so as to obtain a standardized suspension of 10^7 -10^9 cfu/ml for each organism.
Starting from a solution of 1,000 μg/ml in 0.1 N NaOH, each product is diluted in Dextrose agar (previously melted and maintained at 50° C.), with successive dilutions so as to obtain the following concentrations: 64--32--16--8--4--2--1--0.5--0.25--0.125 μg of derivative/ml medium.
For each product, the solution of each concentration is subsequently distributed into Petri dishes 10 cm in diameter, with 10 ml of medium per dish and the same number of dishes as microorganisms to be tested.
As soon as the medium has cooled, the dishes are seeded with the inoculations using 0.4 ml of inoculation per dish. They are spread with a Driglasky loop and the supernatant is removed. The seeded dishes are incubated at 37° C. for 20 hours.

Assay [2] has as its system Bacillus subtilis ATCC 6633. It counts as cell-based. The settings on record: ATCC6633, Dextrose agar, 37° C., 20 hours. As for the experimental part: (§1) (G. L. Daquet and Y. A. Chabbect, Techniques en bacteriologie (Bacteriological techniques), vol. 3, Flammarion Medecine Sciences, Paris, 1972 and W. B. Hugo and A. D. Rusell, Pharmaceutical Microbiology, Blackwell Scientific Publications, London, (1977)). Antibiotic medium no. 1 (seed agar) (Oxoid CM 327) Tryptone-soya broth (Oxoid CM 129) Ringer's physiological solution 1/4 (oxoid BR 52) Dextrose agar (BBL-11165) 0.1 N NaOH "Bacillus subtilis" ATCC 6633 Each of the microorganisms is seeded by streaking in tubes of Antibiotic medium No. 1 (seed agar), which are then incubated at 37° C. for 20 hours. Using a culture loop, the cultures are then seeded in tryptone-soyabroth and incubated at 37° C. for 20 hours. The culture obtained is diluted to 1/4 with Ringer's physiological solution, so as to obtain a standardized suspension of 10^7 -10^9 cfu/ml for each organism. Starting from a solution of 1,000 μg/ml in 0.1 N NaOH, each product is diluted in Dextrose agar (previously melted and maintained at 50° C.), with successive dilutions so as to obtain the following concentrations: 64--32--16--8--4--2--1--0.5--0.25--0.125 μg of derivative/ml medium. For each product, the solution of each concentration is subsequently distributed into Petri dishes 10 cm in diameter, with 10 ml of medium per dish and the same number of dishes as microorganisms to be tested. As soon as the medium has cooled, the dishes are seeded with the inoculations using 0.4 ml of inoculation per dish. They are spread with a Driglasky loop and the supernatant is removed. The seeded dishes are incubated at 37° C. for 20 hours.

Assay [3] concerns Escherichia coli ATCC 10536. It counts as cell-based. The settings on record: ATCC10536, Dextrose agar, 37° C., 20 hours. As for the experimental part:
as §1, with “"Escherichia coli"” for “"Bacillus subtilis"”, “10536” for “6633”

Values after ≈ are worked out from the molar mass of the structure shown. A value given as a limit tells only on which side of the number the result lay.

Experimental findings from patent US4552882A, “7-(1-Pyrrolyl) derivatives of 1-ethyl-1,4-dihydro-4-oxoquinoline-3-carboxylic acids and 1-ethyl-1,4-dihydro-4-oxo-1,8-naphthyridine-3-carboxylic acids and their use as antimicrobial agents” (Provesan, SA, priority 1983, dated 1985) are described below.

As to `CCn1cc(C(=O)O)c(=O)c2ccc(-n3cccc3)nc21` [Example 3, 1-ethyl-1,4-dihydro-4-oxo-7-(1-pyrrolyl)-1,8-naphthyridine-3-carboxylic acid], the minimal inhibitory concentration (MIC) (in general, the least concentration at which growth counts as inhibited) came out at 0.5 µg/mL (≈ 1.76 µM) in assay [1], 0.25 µg/mL (≈ 0.882 µM) in assay [2] and 8 µg/mL (≈ 28.2 µM) in assay [3].

For `CCn1cc(C(=O)O)c(=O)c2cc(F)c(-n3cccc3)cc21` [Example 2, 6-fluoro-7-(1-pyrrolyl)-1-ethyl-1,4-dihydro-4-oxo-3-quinolinecarboxylic acid], the figures for the MIC in assay [1], in assay [2] and in assay [3] were below 0.125 µg/mL, below 0.125 µg/mL and 1 µg/mL (≈ 3.33 µM), respectively.

For the compound `CCn1cc(C(=O)O)c(=O)c2cnc(N3CCNCC3)nc21` [Pipemidic acid, reference compound], the MIC was determined as 4 µg/mL (≈ 13.2 µM) in assay [1], 8 µg/mL (≈ 26.4 µM) in assay [2] and 2 µg/mL (≈ 6.59 µM) in assay [3].

For the compound `CCn1cc(C(=O)O)c(=O)c2ccc(-n3cccc3)cc21` [Example 1, 7-(1-pyrrolyl)-1-ethyl-1,4-dihydro-4-oxo-3-quinolinecarboxylic acid], the MIC in assay [1] is 0.5 µg/mL (≈ 1.77 µM); in assay [2], below 0.125 µg/mL; in assay [3], 4 µg/mL (≈ 14.2 µM).

Consider `CCn1cc(C(=O)O)c(=O)c2cc(F)c(-n3cccc3)nc21` [Example 4, 1-ethyl-1,4-dihydro-4-oxo-6-fluoro-7-(1-pyrrolyl)-1,8-naphthyridine-3-carboxylic acid], for which the MIC in assay [1] is 0.12 µg/mL (≈ 0.398 µM); in assay [2], 0.03 µg/mL (≈ 0.0996 µM); in assay [3], 0.12 µg/mL (≈ 0.398 µM).
